Laboratory results reported in patent US11390624B2, “Pyrazolopyridines and triazolopyridines as A2A / A2B inhibitors” (Incyte Corporation, priority 2019, dated 2022).

Experiments:
[1] = biological target: Adenosine A2A receptor (Tag-lite Adenosine A2A labeled cells) (Homo sapiens (Human), UniProt P29274); assay: A2A Tag-lite HTRF Assay; assay type: binding; details: displacement of Adenosine A2A Receptor Red antagonist fluorescent ligand, 12.5 nM
Description: The final concentration of DMSO was 1%.

[2] = biological target: human adenosine A2B receptor (Homo sapiens (Human), UniProt P29275); assay: Adenosine A2B Receptor Cyclic AMP GS Assay; assay type: cell-based; details: HEK-293 cells, agonist NECA at 12 nM, cAMP accumulation; read-out: A2B—cAMP_EC50
Procedure: Stably transfected HEK-293 cells expressing the human adenosine A2B receptor (Perkin Elmer) were maintained in MEM culture medium with 10% FBS and 100 μg/mL Geneticin (Life Technologies). 18 to 24 hours prior to assay, geneticin was removed from culture. The cisbio cAMP-GS Dynamic kit utilizing the FRET (Fluorescence Resonance Energy Transfer) technology was used to measure cAMP accumulation in the cells. Compounds of the present disclosure at an appropriate concentration were mixed with 10000 cells/well in white 96 well half area plates (Perkin Elmer) for 30 min at room temperature gently shaking. Agonist, NECA (R&D Technologies) at 12 nM was added to each well for 60 min at room temperature gently shaking. Detection reagents, d2-labeled cAMP (acceptor) and anti-cAMP cryptate (donor) were added to each well for 60 min at RT gently shaking. Plates were read on Pherastar (BMG Labtech), fluorescence ratio 665/620 was calculated and EC50 determination was performed by fitting the curve of percent of control versus the log of the compound concentration using GraphPad Prism.

Sequence of Adenosine A2A receptor (Tag-lite Adenosine A2A labeled cells) (P29274 whole entry): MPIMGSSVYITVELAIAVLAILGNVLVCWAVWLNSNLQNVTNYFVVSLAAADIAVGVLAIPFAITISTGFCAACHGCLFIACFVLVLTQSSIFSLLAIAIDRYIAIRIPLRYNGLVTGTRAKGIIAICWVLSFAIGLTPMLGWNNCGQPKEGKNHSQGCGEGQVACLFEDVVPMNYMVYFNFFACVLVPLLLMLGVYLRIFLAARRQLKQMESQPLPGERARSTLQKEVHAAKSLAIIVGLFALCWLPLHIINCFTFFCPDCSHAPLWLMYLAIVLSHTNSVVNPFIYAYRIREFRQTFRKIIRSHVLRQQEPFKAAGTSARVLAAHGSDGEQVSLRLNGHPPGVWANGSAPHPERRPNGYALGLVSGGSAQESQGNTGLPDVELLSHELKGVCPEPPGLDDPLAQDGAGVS
Sequence of human adenosine A2B receptor (P29275 whole entry): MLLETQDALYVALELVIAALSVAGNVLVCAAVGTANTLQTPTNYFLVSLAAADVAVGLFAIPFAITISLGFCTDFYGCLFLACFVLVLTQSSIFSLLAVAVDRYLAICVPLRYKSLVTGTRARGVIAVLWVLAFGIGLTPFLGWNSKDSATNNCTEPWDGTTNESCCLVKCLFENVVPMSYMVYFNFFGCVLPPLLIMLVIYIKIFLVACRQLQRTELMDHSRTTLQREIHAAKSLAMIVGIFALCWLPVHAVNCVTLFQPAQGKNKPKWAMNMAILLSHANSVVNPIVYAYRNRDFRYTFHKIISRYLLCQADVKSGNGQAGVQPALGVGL

| SMILES | Ki [1] [nM] | EC50 [2] [nM] |
| --- | --- | --- |
| Cn1cc(-c2c(-c3cccc(C#N)c3)nc(N)c3nn(Cc4ncccc4F)nc23)ccc1=O [Example 32, 3-(4-amino-2-((3-fluoropyridin-2-yl)methyl)-7-(1-methyl-6-oxo-1,6-dihydropyridin-3-yl)-2H-[1,2,3]triazolo[4,5-c]pyridin-6-yl)benzonitrile] | ≤ 10 | 10 to 100 |
| Cc1cccc(Cn2nc3c(N)nc(-c4cccc(C#N)c4)c(-c4ccncc4C)c3n2)n1 [Example 26, 3-(4-amino-2-((6-methylpyridin-2-yl)methyl)-7-(3-methylpyridin-4-yl)-2H-[1,2,3]triazolo[4,5-c]pyridin-6-yl)benzonitrile] | ≤ 10 | ≤ 10 |
| N#Cc1cccc(-c2nc(N)c3nn(Cc4ncccc4F)nc3c2-c2ccncc2)c1 [Example 31, 3-(4-amino-2-((3-fluoropyridin-2-yl)methyl)-7-(pyridin-4-yl)-2H-[1,2,3]triazolo[4,5-c]pyridin-6-yl)benzonitrile] | ≤ 10 | ≤ 10 |
| CCn1nccc1-c1c(-c2cccc(C#N)c2)nc(N)c2cn(Cc3ccccn3)nc12 [Example 2, 3-(4-amino-7-(1-ethyl-1H-pyrazol-5-yl)-2-(pyridin-2-ylmethyl)-2H-pyrazolo[4,3-c]pyridin-6-yl)benzonitrile] | ≤ 10 | ≤ 10 |
| Cc1ncoc1-c1c(-c2cccc(C#N)c2)nc(N)c2nn(Cc3ncccc3F)nc12 [Example 36, 3-(4-amino-2-((3-fluoropyridin-2-yl)methyl)-7-(4-methyloxazol-5-yl)-2H-[1,2,3]triazolo[4,5-c]pyridin-6-yl)benzonitrile] | ≤ 10 | ≤ 10 |
| CCn1nccc1-c1c(-c2cccc(C#N)c2F)nc(N)c2nn(Cc3ccccn3)nc12 [Example 38, 3-(4-amino-7-(1-ethyl-1H-pyrazol-5-yl)-2-(pyridin-2-ylmethyl)-2H-[1,2,3]triazolo[4,5-c]pyridin-6-yl)-2-fluorobenzonitrile] | ≤ 10 | ≤ 10 |
| Cc1ncoc1-c1c(-c2cccc(C#N)c2)nc(N)c2nn(Cc3ccccn3)nc12 [Example 17, 3-(4-amino-7-(4-methyloxazol-5-yl)-2-(pyridin-2-ylmethyl)-2H-[1,2,3]triazolo[4,5-c]pyridin-6-yl)benzonitrile] | ≤ 10 | ≤ 10 |
| Cc1cnccc1-c1c(-c2cccc(C#N)c2)nc(N)c2nn(Cc3ccccn3)nc12 [Example 19, 3-(4-amino-7-(3-methylpyridin-4-yl)-2-(pyridin-2-ylmethyl)-2H-[1,2,3]triazolo[4,5-c]pyridin-6-yl)benzonitrile] | ≤ 10 | ≤ 10 |
| Cc1ncoc1-c1c(-c2cccc(C#N)c2)nc(N)c2nn(Cc3ccccn3)cc12 [Example 12, 3-(7-amino-4-(4-methyloxazol-5-yl)-2-(pyridin-2-ylmethyl)-2H-pyrazolo[3,4-c]pyridin-5-yl)benzonitrile] | ≤ 10 | 10 to 100 |
| Cc1nc(CO)c(-c2c(-c3cccc(C#N)c3F)nc(N)c3nn(Cc4ccccn4)nc23)o1 [Example 42, 3-(4-amino-7-(4-(hydroxymethyl)-2-methyloxazol-5-yl)-2-(pyridin-2-ylmethyl)-2H-[1,2,3]triazolo[4,5-c]pyridin-6-yl)-2-fluorobenzonitrile] | ≤ 10 | 10 to 100 |
| CCn1nccc1-c1c(-c2cccc(C#N)c2)nc(N)c2nn(Cc3ccccn3)cc12 [Example 9, 3-(7-amino-4-(1-ethyl-1H-pyrazol-5-yl)-2-(pyridin-2-ylmethyl)-2H-pyrazolo[3,4-c]pyridin-5-yl)benzonitrile] | ≤ 10 | ≤ 10 |
